According to patent publication US20090286836A1, “Novel Compounds” (priority 2008, published 2009):
Structures can show the parent of a compound that is named as a salt.

What was measured:
[1] = biological target: T1, human NK2 receptor (Homo sapiens, UniProt P21452); assay: NK functional potency, FLIPR calcium release in U2OS cells (NKA as ligand); type: cell-based; details: BacMam human NK2, average of at least two determinations, read-out: NK2 pKi (functional potency, fpKi) (converted)
T1 construct: expressed in transfected cells; host or cells: human U2OS cells transiently transduced with recombinant BacMam virus
T1 sequence (P21452 1-398): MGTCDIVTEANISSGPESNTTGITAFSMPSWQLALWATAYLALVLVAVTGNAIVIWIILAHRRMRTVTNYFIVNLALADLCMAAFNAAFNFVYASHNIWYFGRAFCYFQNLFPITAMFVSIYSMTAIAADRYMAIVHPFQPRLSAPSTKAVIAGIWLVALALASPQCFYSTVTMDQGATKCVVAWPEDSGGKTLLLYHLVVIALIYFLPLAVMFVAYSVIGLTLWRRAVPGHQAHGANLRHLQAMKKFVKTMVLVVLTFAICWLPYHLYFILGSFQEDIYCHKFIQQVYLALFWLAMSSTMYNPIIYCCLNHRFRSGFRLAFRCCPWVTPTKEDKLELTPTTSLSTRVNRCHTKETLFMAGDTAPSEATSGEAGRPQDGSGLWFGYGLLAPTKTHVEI
Source text: Compounds of the invention were further characterised in a functional assay using FLIPR technology for the determination of their effect to inhibit the intracellular calcium release induced by interaction of NK receptors with its perspective ligands. Human U2OS cells transiently transduced with recombinant BacMam virus expressing human NK1, NK2 and NK3 receptors were used in the studies (see J. P. Condreay et al, Proc. Natl. Acad. Sci. USA 1999, 96(1): 127-132). Briefly, U2OS cells were harvested from tissue culture flasks, re-suspended to a cell density of 200-300K/ml and mixed with recombinant BacMam virus carrying NKR gene in a virus/cell ratio of 1% (v/v). 10K-15K cells/well were then seeded in 384-well Greiner bio-one plate in culture medium (DMEM with 10% FBS), incubated overnight in 5% CO2 at 37° C. […] Finally, 10 uL/well of NKR ligands in assay buffer containing 0.1% BSA was added to the cells and fluorescence signal read on a FLIPR system. […] IC50 values of each compound were determined by an 11-point 3×-dilution inhibition curve. The potency each antagonist (fpKi) was calculated from pIC50 by the Cheng-Prusoff equation using EC50 of ligand determined in a separate experiment. […]

[2] = biological target: T2, human NK3 receptor (Homo sapiens, UniProt P29371); assay: NK functional potency, FLIPR calcium release in U2OS cells (NKB as ligand); type: cell-based; details: BacMam human NK3, average of at least two determinations, read-out: NK3 pKi (functional potency, fpKi) (converted)
T2 construct: expressed in transfected cells; host or cells: human U2OS cells transiently transduced with recombinant BacMam virus
T2 sequence (P29371 1-465): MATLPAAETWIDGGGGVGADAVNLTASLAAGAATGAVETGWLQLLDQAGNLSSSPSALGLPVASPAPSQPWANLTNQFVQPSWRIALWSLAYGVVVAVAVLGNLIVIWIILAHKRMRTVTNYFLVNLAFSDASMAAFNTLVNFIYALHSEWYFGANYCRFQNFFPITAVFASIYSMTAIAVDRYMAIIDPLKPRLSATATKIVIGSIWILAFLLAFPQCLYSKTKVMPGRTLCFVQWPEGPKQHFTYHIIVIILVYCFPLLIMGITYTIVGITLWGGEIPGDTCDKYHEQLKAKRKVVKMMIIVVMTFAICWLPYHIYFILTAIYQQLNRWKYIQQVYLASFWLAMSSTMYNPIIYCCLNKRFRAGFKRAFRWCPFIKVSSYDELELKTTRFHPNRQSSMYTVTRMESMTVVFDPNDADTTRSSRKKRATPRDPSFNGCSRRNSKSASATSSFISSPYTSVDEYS
Source text: (§1) Compounds of the invention were further characterised in a functional assay using FLIPR technology for the determination of their effect to inhibit the intracellular calcium release induced by interaction of NK receptors with its perspective ligands. Human U2OS cells transiently transduced with recombinant BacMam virus expressing human NK1, NK2 and NK3 receptors were used in the studies (see J. P. Condreay et al, Proc. Natl. Acad. Sci. USA 1999, 96(1): 127-132). Briefly, U2OS cells were harvested from tissue culture flasks, re-suspended to a cell density of 200-300K/ml and mixed with recombinant BacMam virus carrying NKR gene in a virus/cell ratio of 1% (v/v). 10K-15K cells/well were then seeded in 384-well Greiner bio-one plate in culture medium (DMEM with 10% FBS), incubated overnight in 5% CO2 at 37° C. After aspirating the medium, cells were loaded 18-24 hr later with cytoplasmic calcium indicator Fluo-4 Calcium 3 dye (Molecular Devices Co.) in 30 uL/well buffer (Hank's balanced salts with 20 mM Hepes) and incubated in CO2 at 37° C. for 60 minutes. 10 uL/well assay buffer (Hank's balanced salts with 20 mM Hepes) containing different concentrations of compounds were then added to the cells for 30 minutes incubation at 37° C. Finally, 10 uL/well of NKR ligands in assay buffer containing 0.1% BSA was added to the cells and fluorescence signal read on a FLIPR system. Substance P, NKA and NKB peptides were used as the ligands for NK1, NK2 and NK3 receptor, respectively. IC50 values of each compound were determined by an 11-point 3×-dilution inhibition curve. The potency each antagonist (fpKi) was calculated from pIC50 by the Cheng-Prusoff equation using EC50 of ligand determined in a separate experiment.
(§2) The compounds of Example 11, Examples 2, 4 and 6 were tested in the NK functional potency assay.

[3] = biological target: T3, NK1 receptor (Meriones unguiculatus, UniProt Q5DUB1); assay: gerbil foot tapping model (GR73632-induced, icv); type: in vivo
T3 construct: from tissue; host or cells: living gerbils; central nervous system (icv agonist GR73632)
Source text: The ability of the compounds of the invention to penetrate the central nervous system and to bind at the NK1 receptor may be determined using the gerbil foot tapping model as described by Rupniak & Williams, Eur. Jour. of Pharmacol., 1994. Intracerebroventricular (icv) administration of the NK1 receptor agonist GR73632 (R. M. Hagan et al., Neuropeptides 1991, 19 (2), 127-135) a characteristic hind leg foot tapping (GFT) response in gerbils which can be inhibited by potent NK1 receptor antagonists. The gerbil foot tapping paradigm was carried out as follows; gerbils were dosed with compound of the invention, and following an appropriate pre-treatment time were anaesthetised using isofluorane/oxygen mixture. The skull was then exposed and 5 ul of GR73632 ([…].) was injected by insertion of a cuffed 25G needle to a depth of 4 mm below bregma, directly into the lateral ventricle (intracerebroventricular dosing). Immediately following the injection, gerbils were placed individually into a clear observation box to recover.
Upon the gerbil regaining its righting reflex, the duration of repetitive hind foot tapping was recorded over a 5 minute period. The dose of the test compound required to inhibit by 50% the tapping induced by the NK1 agonist expressed as mg/kg is referred to as the ID50 values.

[4] = tested on: common marmosets; assay: marmoset human threat test; type: in vivo, common marmoset; details: for No. jumps / No. postures: marmoset, oral, 1 h before test; for No. jumps: mean±SEM (n=4), index of locomotor activity; for No. postures: mean±SEM (n=7)
Protocol: For example the marmoset human threat test (Costall et al., 1988
The study utilised in house laboratory-bred male and female common marmosets over 2 years of age, weighing 300-500 g. The animals were caged in couples, in a housing room maintained at 25±1° C., 60% humidity and a 12 hour light/dark cycle (lights on at 0600, with 30 min simulated dawn and twilight). Testing was carried out with the animals situated in the home cage.
One hour before the test animals were treated orally with vehicle (0.5% HPMC) or test compound (1 ml/kg). After a wash-out period of at least three days, treatments were reassigned and the study was complete when all animals had received all treatments. Number of specific behavioural postures in response to the human threat and the number of jumps were analysed in this study. The postures recorded in the test were those described by Costall et al (1988). and the number of jumps from the back of the cage to the cage front provided an index of locomotor activity to assess potential for sedation or locomotor stimulation.
Results are expressed as mean±SEM (n=7). of number of postures and as a mean±SEM (n=4) of number of jumps. Data were subjected to one-way analysis of variance (ANOVA) followed by Dunnett's test, comparing each compound dose with vehicle treatment, using Statistica software (version 8.0) Statistically significant differences with respect to vehicle are indicated as *P<0.01.

[5] = biological target: T4, human NK1 receptor (Homo sapiens, UniProt P25103); assay: NK1 filtration binding assay with [3H]-GR205171 on human NK1-CHO cell membranes; set-up: expressed in transfected cells; details: average of five independent experiments, [3H]-GR205171 radioligand, read-out: NK1 binding affinity pKi (converted)
Protocol: The NK1 binding affinity of the compounds of the invention was determined using the following filtration binding assay using [^3H]-GR205171 as radioligand for human NK1 receptor stably expressed in CHO (Chinese Hamster Ovary) cells (see C. Griffante et al, Br. J. Pharmacol. 2006, 148, 39-45; H. M. Sarau et al, J. Pharmacol. Experimental Therapeutics 2000, 295(1), 373-381 and D. T. Beattie et al., Br. J. Pharmacol. 1995, 116, 3149-3157).
CHO cells stably expressing the human cloned neurokinin NK1 receptor were cultured in Dulbecco's Modified Eagle's Medium/F12 Ham (DMEM/F12Ham) supplemented with 10% foetal bovine serum and 2 mM L-glutamine. Cells were maintained in 5% CO2 in a humidified incubator at 37° C. […]
Binding assay was carried out in 96 deep well polypropylene plates (Whatman) in a volume of 400 μl consisted of 100 μl of incubation buffer (containing 50 mM HEPES, pH 7.4, 3 mM MnCl2, and 0.02% BSA), 4 μl of DMSO (total binding) or increasing concentrations of the compounds in the invention dissolved in DMSO (1 pM-1 μM final concentration), 100 μl of the radioligand [^3H]-GR205171 (0.2 nM final concentration) in incubation buffer and 200 μl of human NK1-CHO cell membranes suspension (4 μg/ml final) in incubation buffer. […] Filterplates were dried and retained radioactivity was counted in a Top Count (Perkin-Elmer). […]

[6] = biological target: T4, human NK1 receptor; assay: NK functional potency, FLIPR calcium release in U2OS cells (Substance P as ligand); type: cell-based; set-up: expressed in transfected cells; host or cells: human U2OS cells transiently transduced with recombinant BacMam virus; details: BacMam human NK1, average of at least two determinations, read-out: NK1 pKi (functional potency, fpKi) (converted)
Source text: as §1, §2

T3 sequence (Q5DUB1 whole entry): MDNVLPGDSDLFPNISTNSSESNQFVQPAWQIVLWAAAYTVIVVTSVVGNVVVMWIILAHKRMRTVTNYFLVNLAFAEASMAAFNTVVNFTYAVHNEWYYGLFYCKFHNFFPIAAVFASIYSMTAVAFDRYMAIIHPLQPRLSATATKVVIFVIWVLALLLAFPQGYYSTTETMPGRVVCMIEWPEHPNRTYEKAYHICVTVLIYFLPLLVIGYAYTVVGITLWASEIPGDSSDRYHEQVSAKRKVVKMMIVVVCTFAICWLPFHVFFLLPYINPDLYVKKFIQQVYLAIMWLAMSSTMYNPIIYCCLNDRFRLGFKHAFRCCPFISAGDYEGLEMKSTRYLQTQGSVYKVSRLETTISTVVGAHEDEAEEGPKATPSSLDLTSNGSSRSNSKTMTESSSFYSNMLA
T4 sequence (P25103 whole entry): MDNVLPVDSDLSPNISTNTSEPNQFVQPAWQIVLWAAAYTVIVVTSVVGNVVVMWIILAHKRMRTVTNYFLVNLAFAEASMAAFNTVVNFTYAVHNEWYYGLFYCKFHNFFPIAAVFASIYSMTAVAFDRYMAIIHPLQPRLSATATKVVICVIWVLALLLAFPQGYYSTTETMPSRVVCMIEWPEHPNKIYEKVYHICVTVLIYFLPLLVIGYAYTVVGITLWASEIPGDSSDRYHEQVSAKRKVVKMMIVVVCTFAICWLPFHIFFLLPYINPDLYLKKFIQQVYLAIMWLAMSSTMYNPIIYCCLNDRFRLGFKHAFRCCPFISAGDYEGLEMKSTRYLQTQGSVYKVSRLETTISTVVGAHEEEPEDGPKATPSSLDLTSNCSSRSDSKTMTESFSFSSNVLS

With `Cc1cc(F)ccc1-c1cc([C@H]2CC[C@](C)(C(N)=O)N2)ncc1N(C)C(=O)C(C)(C)c1cc(C(F)(F)F)cc(C(F)(F)F)c1` [Example 11, (5R)-5-[5-[{2-[3,5-bis(trifluoromethyl)phenyl]-2-methylpropanoyl}(methyl)amino]-4-(4-fluoro-2-methylphenyl)-2-pyridinyl]-2-methyl-D-prolinamide bis-hydrochloride] the Ki [1] was greater than 1000 nM, the Ki [2] was 31.6 nM and the “GR73632-induced Foot Tapping behaviour” value ([3]; gerbil, 0.3, 1.0 and 3.0 mg/kg p.o (P<0.01)) was “significantly attenuated”. The “ID50 as plasma concentration” value ([3]; gerbil, p.o., GR73632 icv) was “approximately 5 ng/ml plasma”, the ED50 ([3]; po, gerbil, p.o., GR73632 icv, read-out: ID50, dose inhibiting by 50% the foot tapping induced by the NK1 agonist) was roughly 0.2 mg/kg and the “effect on number of postures (anxiolytic effect)” value ([4]; marmoset, 0.1, 0.3 or 1 mg/kg oral, significant at 0.3 and 1 mg/kg (P<0.01), no reduction in number of jumps) was “dose dependent reduction in the number of postures”. The No. jumps ([4]; 0.1 mg/kg) was 20.1 ± 2.1, the No. postures ([4]; 0.1 mg/kg) was 9.4 ± 1.0 and the No. jumps ([4]; 0.3 mg/kg) was 13.4 ± 2.5. The No. postures ([4]; 0.3 mg/kg, *P<0.01 vs vehicle) was “*6.3 ± 0.9”, the No. jumps ([4]; 1 mg/kg) was 13.0 ± 2.1 and the No. postures ([4]; 1 mg/kg, *P<0.01 vs vehicle) was “*4.0 ± 0.4”. It also gave a Ki [5] of 0.132 nM and a Ki [6] of 0.0794 nM.

`Cc1cc(F)ccc1-c1cc([C@@H]2CC[C@](C)(C(N)=O)N2)ncc1N(C)C(=O)C(C)(C)c1cc(C(F)(F)F)cc(C(F)(F)F)c1` [Example 6, (5S)-5-[5-[{2-[3,5-bis(trifluoromethyl)phenyl]-2-methylpropanoyl}(methyl)amino]-4-(4-fluoro-2-methylphenyl)-2-pyridinyl]-2-methyl-D-prolinamide hydrochloride] was tested, and the Ki [2] was 158 nM and the Ki [6] was less than 0.17 nM.

`Cc1cc(F)ccc1-c1cc([C@H]2CC[C@](C)(C(N)=O)N2)ncc1N(C)C(=O)C(C)(C)c1cc(C(F)(F)F)cc(C(F)(F)F)c1` [Example 2, (5R)-5-[5-[{2-[3,5-bis(trifluoromethyl)phenyl]-2-methylpropanoyl}(methyl)amino]-4-(4-fluoro-2-methylphenyl)-2-pyridinyl]-2-methyl-D-prolinamide hydrochloride] was tested, and the Ki [2] was 79.4 nM and the Ki [6] was less than 0.17 nM.

With `Cc1cc(F)ccc1-c1cc([C@H]2CC[C@@](C)(C(N)=O)N2)ncc1N(C)C(=O)C(C)(C)c1cc(C(F)(F)F)cc(C(F)(F)F)c1` [Example 4, (5R)-5-[5-[{2-[3,5-bis(trifluoromethyl)phenyl]-2-methylpropanoyl}(methyl)amino]-4-(4-fluoro-2-methylphenyl)-2-pyridinyl]-2-methyl-L-prolinamide hydrochloride] the Ki [2] was 63.1 nM and the Ki [6] was less than 0.17 nM.
